Earlier results in patent EP0606683B1, “Means for diagnosis of angiogenic diseases” (INSTITUT FÜR DIAGNOSTIKFORSCHUNG GmbH AN DER FREIEN …, priority 1993, dated 2003).

Experiments:
[1] = test system: deendothelisierten Bereichen der Aorta; settings: rabbit, abdominal aorta de-endothelialised by balloon catheter; Kurata et al. 1992
[2] = test system: humanen atheromatösen Koronararterien; settings: in vitro incubation; Dashwood et al., 1991

## ^125I-Endothelin 1: ^125I-labelled Endothelin 1, ein Polypeptid aus 21 Aminosäuren; used in cited literature studies
[1]
  Aufnahme von ^125I-Endothelin 1 in den deendothelisierten Bereichen der Aorta: vermehrte Aufnahme
[2]
  Bindung von ^125I-Endothelin 1 im Bereich der Tunica media sowie in Bereichen der Vasa vasora: vermehrte Bindung
